Consider three compounds from patent publication US7524490B2, “Clusterin-mediated inhibition of apoptosis via stromal bone marrow cell delivery to a cardiac site” (Board of Regents of the University of Texas System, priority 2004, dated 2009).

Experiment [1] relates to murine cardiac stem cells. Description: Apoptosis of cardiac stem cells induced by serum starvation, with or without clusterin. In kind it is cell-based, mouse. Conditions: clusterin-containing DMEM medium, many cells died without clusterin. On the procedure:
Treatment of stem cells in culture. An in vitro system was first employed to examine the protective effects of clusterin on stem cells. Stem cells were treated with clusterin at different concentrations in the cultures with or without proinflammatory cytokines or T lymphocytes pre-activated by mitogens. After 2-4 days of stimulation, cell survival and apoptosis were examined using a combination of techniques including flow cytometry, fluorescent microscopy, and radioactive isotope labeling, as described below. Control experiments were set up using other types of proteins, such as bovine albumin.
(§1) Detection of apoptotic cells. Determination of apoptosis needs a combination of techniques in morphology and biochemistry. Apoptosis was detected using the following six techniques: 1) Light microscopy; 2) Fluorescent confocal scanning or non-confocal microscopy, 3). […] The signal of TdT-mediated dUTP nick end labeling (TUNEL) was detected by an anti-digoxigenin antibody conjugated with peroxidase, a reporter enzyme which catalytically generates a brown color product from the chromogenic substrate diaminobenzidine. […] DNA was precipitated in ethanol, and analyzed for fragmentation by 2% agarose gel electrophoresis with ethidium bromide. […] In this study, cell proliferation and apoptosis were analyzed by flow cytometry. […]

For another experiment, the system named is stem cells. Description: Clusterin pretreatment of stem cells in serum-free conditioned medium. In kind it is cell-based, mouse. Conditions: 20-30 μg/ml clusterin, 24 hours, preliminary data. The procedure: Stem cell culture and treatment with oxysterols and cytokines. Mouse stem cells were used in this in vitro study. Two groups of proapoptotic agents were used to induce apoptosis of stem cells: oxysterols and cytokines. In group 1, stem cells were treated with 7-ketocholesterol (7-KC) and 25-OH-cholesterol (25-OH—C), two oxysterols known to exist in abundantly in atherosclerotic lesions and to induce apoptosis in cardiovascular cells. Free cholesterol was used as controls. In group 2, stem cells were incubated with a combination of tumor necrosis factor (TNF)-α and interferon (IFN)-γ, two cytokines previously shown to induce apoptosis of stem cells. In addition, to determine whether the Fas death-signaling pathway is involved in apoptosis of stem cells, stem cells were treated with recombinant Fas ligand in the presence of IFN-γ.
Clusterin treatment. In order to determine whether clusterin prevents apoptosis of stem cells, stem cells were pretreated with clusterin purified from serum or synthesized by use of recombinant technology. Stem cells were cultured in a serum-free, conditioned medium supplemented with 20-30 μg/ml clusterin for 24 hours. The preliminary data indicated no apoptosis under the culture condition with clusterin. […] Cells were analyzed for apoptosis using the following methods after treatment. […]

A further experiment has as its system KG-293 cells. In words: TNF-α-induced apoptosis in KG-293 cells with tetracycline-induced intracellular clusterin. In kind it is cell-based, human. An excerpt: Transfection with clusterin cDNA. Initially a plasmid was constructed that contains a truncated form of clusterin cDNA with deletion of the sequence responsible for cross-membrane transport. Transfection of human embryonic 293 cell line with this plasmid leads to intracellular overexpression of a non-secreted form of clusterin. The clusterin gene is under control of a CMV promoter with tetracycline-sensitive elements. […] This plasmid will be used to deliver the truncated clusterin gene into stem cells. The cells will be selected using G418 as the plasmid contains a neomycin-resistant gene.
A plasmid pKS7 that contains a truncated clusterin cDNA with deletion of the transmembrane domain and a neomycin-resistant gene was constructed. The truncated clusterin gene was under regulation by a CMV promoter with tetracycline-responding elements. Stable transfection of the human embryonic kidney cell line T-293 with pKS7 generates a stable cell line (KG-293) with clusterin overexpressed. As shown by Western blot, under stimulation with tetracycline (1 μg/ml) for 24 hours, KG-293 cells but not their precursors, T-293 cells, produced an intracellular form of clusterin at much higher levels (FIG. 7A). […] KG-293 cells overexpressing the intracellular form of clusterin also underwent dramatic alterations in morphology and proliferation. […]

Experiment [2] in a line: Dot blotting of clusterin binding to filter-coated lipids. Further details: species or system mouse. Conditions: 10 μg/well serum proteins from TG and WT mice, 30 min, room temperature; anti-clusterin detection. On the procedure: As a component of HDL, clusterin helps transport cholesterol crossing the cellular membrane. In atherosclerotic lesions, cholesterol-derived oxysterols accumulate and exert apoptotic effects on vascular cells. Usually, the cytotoxicity of oxysterols including 7-ketocholesterol is much greater than that of free cholesterol. […] Free cholesterol and 7-ketocholesterol dissolved in ethanol were loaded to a filter in a 96-well dot blotting device. 10 μg/well proteins from three TG and WT serum samples were incubated in the wells for 30 min at room temperate. After washing with PBS, the filter was incubated with anti-clusterin antibody (1:200), and then anti-goat IgG conjugated with peroxidase. The dot blotting was developed using an ECL kit. Furthermore, an increased binding activity to the oxysterol in the serum from clusterin transgenic mice, compared to these in wild type mouse serum (FIG. 10), was detected. Thus, clusterin appears to have a higher affinity to some oxidized cholesterol derivatives.

Experiment [3] relates to vascular smooth muscle cells. Description: Oxysterol-induced internucleosomal DNA fragmentation and apoptosis in vascular smooth muscle cells. In kind it is cell-based.
Description: FIG. 11 is an ethedium bromide-stained agarose gel loaded with DNA samples extracted from clusterin-transfected or non-transfected vascular smooth muscle cells.
as §1, with “microscopy, 3). In situ labeling of DNA 3′ ends (TUNEL technique), 4) Electron microscopy, 5) DNA agarose gel electrophoresis, and 6) Flow cytometry. These techniques are describe more particularly as follows: 1) Light microscopy was applied routinely to analyze morphological changes of vascular cells. 2) Fluorescent confocal scanning or non-confocal microscopy was used to characterize cytoskeletal and nuclear alterations after immunofluorescent staining. DAPI or Hoechst dye was used for nuclear morphology under UV excitation.” for “microscopy,”

In experiment [4] the test system is aldehyde dehydrogenase-1 (ALDH-1). In words: Induction of aldehyde dehydrogenase expression in smooth muscle cells (immunoblot). In kind it is cell-based, murine. Particulars: recombinant human clusterin 0, 5, 25, 50 μg/ml; concentration-dependent. The procedure:
FIG. 13 is an immunoblot showing induction of aldehyde dehydrogenase-1 (ALDH-1) in murine vascular smooth muscle cells by treatment with recombinant human clusterin (apoJ) at different concentrations (lane 1, 0 μg/ml; lane 2, 5 μg/ml; lane 3, 25 μg/ml; lane 4, 50 μg/ml).
Aldehyde dehydrogenase expression and vitamin A metabolism were investigated to determine whether clusterin exerts its protective effect through upregulation of genes involved in cellular detoxification. Aldehyde dehydrogenases (ALDHs) are a group of intracellular enzymes that mediate NAD-coupled oxidation of aldehydes to carboxylic acids. ALDH is probably most widely known for its role in clearance of acetaldehyde from beverage alcohol by conversion to acetic acid. This enzymes is also involved in retinol metabolism and mediates vitamin A function. Members of the ALDH family are diversed; some have broad substrate specificities (ALDH1 and ALDH2) and other ALDHs are tailored to specific reactions of intermediary metabolism (e.g., methyl malonic semialdehyde dehydrogenase in branched-chain amino acid metabolism). ALDH1 is primarily found in the liver and in adult stem cells including hematopoietic stem cells. […]
(In western blotting, separated proteins are transferred to a membrane and probed.)

In the case of “clusterin: sulfated, heterodimeric glycoprotein containing two 40 kDa chains joined by a five disulfide bond motif; native or recombinant”, the “apoptosis of cardiac stem cells (morphology, acridine orange/ethidium bromide staining)” value in experiment [1] was “no sign of apoptosis”. For the same compound, the “apoptosis of stem cells under culture condition with clusterin” value in the experiment on stem cells was “no apoptosis”. For the same compound, in the experiment on KG-293 cells (KG-293 cells with intracellular overexpression of truncated clusterin (pKS7, tetracycline 1 μg/ml)), the “effect on the pro-apoptotic effect of TNF-α” value is listed as “significantly attenuated”. Moreover, in experiment [2], the “binding to 7-ketocholesterol versus free cholesterol (dot blot intensity)” value was “much higher intensities than free cholesterol”. Further, the “effect on oxysterol-induced DNA fragmentation and apoptosis in vascular cells” value in experiment [3] (overexpression of clusterin by cDNA transfection) is “markedly reduces the DNA fragmentation and apoptosis”. Besides, the “expression of ALDH in smooth muscle cells” value in experiment [4] is “significantly induced expression of ALDH”.

As for `CC(C)CCC[C@@H](C)[C@H]1CC[C@H]2[C@@H]3C(=O)C=C4C[C@@H](O)CC[C@]4(C)[C@H]3CC[C@]12C` [7-ketocholesterol, reference compound], the “induction of apoptosis of vascular smooth muscle cells (internucleosomal DNA fragmentation)” value in experiment [3] (exposure to oxysterol) is given as “can trigger apoptosis”.

With TNF-α [reference compound], in the experiment on KG-293 cells (TNF-α 10 ng/ml for 24 and 48 hours, cells not exposed to tetracycline), the “induction of apoptosis in control KG-293 cells” value is “markedly induced apoptosis”.
